Key:
[1] = Acute toxicity (LD50) in mouse; type: in vivo; details: in vivo, 10 days observation
Method: (§1) Acute toxicity was studied in male and female mice of Swiss stock, and in male and female albino rats of Wistar stock, by administering the active principle orally, intravenously and intramuscularly.
(§2) For each method of administration, doses in geometrical progression were administered to 10 animals for each dose over a period of observation of 10 days.
(§3) On termination of the period of observation, the LD50 and the relative reliability limits were calculated by the method of Litchfield and Wilcoxon (Pharmacol. Exp. Ther., 96-19, 1949).

[2] = Acute toxicity (LD50) in rat; type: in vivo; details: in vivo, 10 days observation
Method: as §1, §2, §3

[3] = test system: mice of Swiss stock; assay: Acute toxicity (LD50) in mouse; type: in vivo; details: 10 days observation; for LD50, mouse, intram. admin.: intramuscular; for LD50, mouse, intrav. admin.: intravenous; for LD50, mouse, oral admin.: Litchfield and Wilcoxon
Method: as §1, §2, §3

[4] = test system: albino rats of Wistar stock; assay: Acute toxicity (LD50) in rat; type: in vivo; details: 10 days observation; for LD50, rat, intram. admin.: intramuscular; for LD50, rat, intrav. admin.: intravenous
Method: as §1, §2, §3

[5] = test system: gastric ulcers induced by the ligature of the pylorus; assay: Gastric ulcers induced by ligature of the pylorus; type: in vivo, rat (Sprague Dawley); details: oral, one hour after operation; compounds and ranitidine 1, 3, 10, 30 mg/kg; cimetidine 3, 10, 30, 100 mg/kg
Method: To study the effect of the new compounds according to the present invention, 50 male and female rats of Sprague Dawley stock weighing approximately 200 grams were used for each compound examined.
The animals, under diet, were subjected to legature of the pylorus.
One hour after this operation, the animals were treated orally either with doses of 1, 3, 10 and 30 mg/kg of the examined compounds, or with doses of 3, 10, 30 and 100 mg/kg of cimetidine, or with doses of 1, 3, 10 and 30 mg/kg of ranitidine.

[6] = im, intramuscular, read-out: LD50, mouse, intram. admin.
[7] = intravenous, read-out: LD50, mouse, intrav. admin.
[8] = oral, Litchfield and Wilcoxon, read-out: LD50, mouse, oral admin.
[9] = im, intramuscular, read-out: LD50, rat, intram. admin.
[10] = intravenous, read-out: LD50, rat, intrav. admin.
[11] = oral, read-out: LD50, rat, oral admin.

Molecule	LD50 at 240 h [1, 6]	LD50 at 240 h [1, 7]	LD50 at 240 h [1, 8]	LD50 at 240 h [2, 9]	LD50 at 240 h [2, 10]	LD50 at 240 h [2, 11]	LD50, mouse, intram. admin. [3]	LD50, mouse, intrav. admin. [3]	LD50, mouse, oral admin. [3]	LD50, rat, intram. admin. [4]	LD50, rat, intrav. admin. [4]	LD50, rat, oral admin. ([4]; oral)	Inhibition of incidence of gastric ulcers induced by ligature of the pylorus [5]
CN(C)Cc1ccc(CSCCNC(=C[N+](=O)[O-])N2CCCCC2)o1	300 mg/kg	90 mg/kg	2600 mg/kg	2100 mg/kg	100 mg/kg	–	–	–	–	–	–	–	–
CN(C)Cc1ccc(CSCCNC(=C[N+](=O)[O-])N[C@H]2C[C@H]3CC[C@@H]2C3)o1 (relative stereo) [AU/019]	300 mg/kg	100 mg/kg	2600 mg/kg	2100 mg/kg	120 mg/kg	–	–	–	–	–	–	–	–
CC1CCN(C(=C[N+](=O)[O-])NCCSCc2ccc(CN(C)C)o2)CC1 [AU/002, 1-N-[2-[[5-[(dimethylamino)methyl]furfuryl]thio]ethyl]amino-1-(4-methyl-piperidino)-2-nitro-ethene]	320 mg/kg	100 mg/kg	2700 mg/kg	2000 mg/kg	100 mg/kg	–	–	–	–	–	–	–	–
CCN1CCCC(NC(=C[N+](=O)[O-])NCCSCc2ccc(CN(C)C)o2)C1 (stereo not drawn) [AU/003]	300 mg/kg	90 mg/kg	2800 mg/kg	2200 mg/kg	100 mg/kg	–	–	–	–	–	–	–	–
CN(C)Cc1ccc(CSCCNC(=C[N+](=O)[O-])N2CCN(CCO)CC2)o1 [AU/004, 1-N-[2-[[5-[(dimethylamino)methyl]furfuryl]thio]ethyl]-amino-1-4-(2-hydroxyethyl)-1-piperazino ethene]	300 mg/kg	95 mg/kg	2700 mg/kg	2000 mg/kg	110 mg/kg	–	–	–	–	–	–	–	–
CN(C)Cc1ccc(CSCCNC(=C[N+](=O)[O-])N2CCC(Cc3ccccc3)CC2)o1 [AU/005, 1-N-[2-[[5-[(dimethylamino)methyl]furfuryl]thio]ethyl]-amino-1-(4-benzyl-piperidino)-2-nitroethene]	300 mg/kg	95 mg/kg	2700 mg/kg	2100 mg/kg	110 mg/kg	5500 mg/kg	–	–	–	–	–	–	–
CN(C)Cc1ccc(CSCCNC(=C[N+](=O)[O-])N2CCN(Cc3ccccc3)CC2)o1 [AU/006, 1-N-[2-[[5-[(dimethylamino)methyl]furfuryl]thio]ethyl]amino-1-(4-benzyl-piperazino)-2-nitroethene]	300 mg/kg	90 mg/kg	2700 mg/kg	2100 mg/kg	100 mg/kg	–	–	–	–	–	–	–	–
CN(C)Cc1ccc(CSCCNC(=C[N+](=O)[O-])N2CC2)o1 [AU/007, 1-N-[2-[[5-[(dimethylamino)methyl]furfuryl]thio]ethyl]amino-1-ethyleneimino-2-nitroethene]	310 mg/kg	100 mg/kg	2800 mg/kg	2100 mg/kg	100 mg/kg	–	–	–	–	–	–	–	–
CN(C)Cc1ccc(CSCCNC(=C[N+](=O)[O-])N2CCC2)o1 [AU/008, 1-N-[2-[[5-[(dimethylamino)methyl]furfuryl]thio]ethyl]amino-1-cyclopropyleneimino-2-nitroethene]	310 mg/kg	100 mg/kg	2600 mg/kg	2200 mg/kg	100 mg/kg	–	–	–	–	–	–	–	–
CN(C)Cc1ccc(CSCCNC(=C[N+](=O)[O-])NC2CCCCC2)o1 [AU/009, N-[2-[[5-[(dimethylamino)methyl]furfuryl]thio]ethyl]-N'-(cyclohexyl)-2-nitro-1,1-ethenediamine]	300 mg/kg	100 mg/kg	2600 mg/kg	2200 mg/kg	110 mg/kg	–	–	–	–	–	–	–	–
CN(C)Cc1ccc(CSCCNC(=C[N+](=O)[O-])NC2=CCC=CC2)o1 [AU/010, N-[2-[[5-[(dimethylamino)methyl]furfuryl]thio]ethyl]-N'-(1,4-ciclohexadienyl)-2-nitro-1,1-ethenediamine]	–	–	–	–	–	–	310 mg/kg	95 mg/kg	2700 mg/kg	2200 mg/kg	110 mg/kg	–	–
CN(C)Cc1ccc(CSCCNC(=C[N+](=O)[O-])NCC2=CCC=CC2)o1 [AU/011, N-[2-[[5-[(dimethylamino)methyl]furfuryl]thio]ethyl]-N'-(1,4-cyclohexadienyl-2-methyl)-2-nitro-1,1-ethenediamine]	–	–	–	–	–	–	310 mg/kg	90 mg/kg	2700 mg/kg	2100 mg/kg	110 mg/kg	5510.0 mg/kg	–
CN(C)Cc1ccc(CSCCNC(=C[N+](=O)[O-])N2CCCCCC2)o1 [AU/013, 1-N-[2-[[5-[(dimethylamino)methyl]furfuryl]thio]ethyl]-amino-1-hexamethyleneimino-2-nitroethene]	300 mg/kg	90 mg/kg	2700 mg/kg	2100 mg/kg	100 mg/kg	5530 mg/kg	–	–	–	–	–	–	–
CN(C)Cc1ccc(CSCCNC(=C[N+](=O)[O-])NN2CCCCCC2)o1 [AU/014, N-[2-[[5-[(dimethylamino)methyl]furfuryl]thio]ethyl]-N'-(hexamethyleneimino)-2-nitro-1,1-ethenediamine]	300 mg/kg	90 mg/kg	2600 mg/kg	2200 mg/kg	100 mg/kg	–	–	–	–	–	–	–	–
CN(C)Cc1ccc(CSCCNC(=C[N+](=O)[O-])NC2CCCCCC2)o1 [AU/015, N-[2-[[5-[(dimethylamino)methyl]furfuryl]thio]ethyl]-N'-cycloheptyl-2-nitro-1,1-ethenediamine]	300 mg/kg	100 mg/kg	2800 mg/kg	2200 mg/kg	100 mg/kg	–	–	–	–	–	–	–	–
CN(C)Cc1ccc(CSCCNC(=C[N+](=O)[O-])NC2CCCC2)o1 [AU/016, N-[2-[[5-[(dimethylamino)methyl]furfuryl]thio]ethyl]-N'-cyclopentyl-2-nitro-1,1-ethenediamine]	300 mg/kg	90 mg/kg	2700 mg/kg	2200 mg/kg	100 mg/kg	–	–	–	–	–	–	–	–
CN(C)Cc1ccc(CSCCNC(=C[N+](=O)[O-])N2CCCC2)o1 [AU/017, 1-N-[2-[[5-[(dimethylamino)methyl]furfuryl]thio]ethyl]-amino-1-pyrrolidino-2-nitroethene]	300 mg/kg	100 mg/kg	2600 mg/kg	2200 mg/kg	100 mg/kg	–	–	–	–	–	–	–	–
CN(C)Cc1ccc(CSCCNC(=C[N+](=O)[O-])N2CCOCC2)o1 [AU/018, 1-N-[2-[[5-[(dimethylamino)methyl]furfuryl]thio]ethyl]-amino-1-morpholino-2-nitroethene]	350 mg/kg	90 mg/kg	2700 mg/kg	2200 mg/kg	100 mg/kg	–	–	–	–	–	–	–	–
CN(C)Cc1ccc(CSCCNC(=C[N+](=O)[O-])NC2CC3C=CC2C3)o1 (stereo not drawn) [AU/020]	300 mg/kg	110 mg/kg	2700 mg/kg	2100 mg/kg	110 mg/kg	–	–	–	–	–	–	–	–
CN/C(=N/CCSCc1nc[nH]c1C)NC#N [cimetidine]	–	–	–	–	–	–	–	–	–	–	–	–	significantly inhibit the incidence of gastric ulcers
CNC(=C[N+](=O)[O-])NCCSCc1ccc(CN(C)C)o1 [ranitidine]	–	–	–	–	–	–	–	–	–	–	–	–	significantly inhibit the incidence of gastric ulcers
N-[2-[[5-[(dimethylamino)methyl]furfuryl]thio]ethyl]-N'-(1,4-cyclohexadienyl-2-ethyl)-2-nitro-1,1-ethenediamine [AU/012]	–	–	–	–	–	–	300 mg/kg	90 mg/kg	2800 mg/kg	2100 mg/kg	110 mg/kg	–	–
